Reference: patent US20130123481A1, “MODIFIED NUCLEOSIDES, NUCLEOTIDES, AND NUCLEIC ACIDS, AND USES THEREOF” (MODERNA THERAPEUTICS, priority 2011, published 2013)
Like-named read-outs stand apart in the source and are kept apart here.

How the values were obtained:
HeLa cells [1] = assay: G-CSF expression in HeLa cells (ELISA); format: cell-based, human; set-up: key to Protein (G-CSF; HeLa): the protein production of HeLa is judged by “+,” “+/−” and “−”; the protein production of HeLa is judged by “+,” “+/−” and “−”; the protein production of HeLa is judged by “+,” “+/−” and “−”; conditions: for G-CSF protein (pg/ml) HeLa cells: fully modified G-CSF mRNA transfected in HeLa cells, ELISA
Description: (§1) To assess the activity of all our different chemical modifications in the context of a second open reading frame, we replicated experiments previously conducted using luciferase mRNA, with human G-CSF mRNA. […] The mutant T7 polymerase was obtained commercially (Durascribe® T7 Transcription kit (Cat. No. DS010925) (Epicentre®, Madison, Wis.).
(§2) The modified RNA in Tables 45 and 46 were transfected in vitro in HeLa cells or added to rabbit reticulysates (250 ng of modified mRNA) as indicated. […] In Table 45, “NT” means not tested.

rabbit reticulysates = assay: G-CSF expression in rabbit reticulysates (ELISA); format: biochemical; conditions: 250 ng modified G-CSF mRNA in rabbit reticulysates
Description: as §1, §2

[2] = test system: peripheral blood mononuclear cells (PBMC); assay: In Vitro Screening in PBMC - G-CSF protein expression; format: cell-based, human; conditions: for Protein (G-CSF; PBMC): background about 110 pg/ml; for G-CSF Protein Expression: 500 ng mRNA
From the text: (§3) The supernatant was harvested and stored frozen until analyzed by ELISA to determine the G-CSF protein expression, and the induction of the cytokines interferon-alpha (IFN-α) and tumor necrosis factor alpha (TNF-α).

wild-type T7 polymerase = wild-type T7 polymerase (Escherichia phage T7, UniProt P00573); assay: In Vitro Transcription with Wild-Type T7 Polymerase (transcription and capping yield); conditions: Pass/Fail; for IVT (G-CSF) / IVT (Luc): Table 47 naturally occurring; for IVT (G-CSF) / IVT (G-CSF), first result: G-CSF mRNA in vitro transcription; for IVT (Luc) / IVT (Luc), first result: luciferase mRNA in vitro transcription; for IVT (G-CSF), first result / IVT (Luc), first result: Table 48 non-naturally occurring
Description: The luciferase and G-CSF modified mRNA were also subjected to an enzymatic capping reaction and each modified mRNA capping reaction was evaluated for yield by spectrophometic measurement (OD260) and correct size assessed using bioanalyzer.

[3] = test system: peripheral blood mononuclear cells (PBMC), interferon-alpha (IFN-α); format: cell-based, human; conditions: IFN-alpha, background about 70 pg/ml
From the text: as §3

HeLa cells [4] = assay: In vitro Screening in HeLa Cells - luciferase (RLU); format: cell-based, human; set-up: key to Protein (Luc; HeLa): the protein production of HeLa is judged by “+,” “+/−” and “−”; the protein production of HeLa is judged by “+,” “+/−” and “−”; the protein production of HeLa is judged by “+,” “+/−” and “−”
Description: The 2′Fluoro-modified mRNA were then transfected into HeLa cells to assess protein production in a cell context and the same mRNA were also assessed in a cell-free rabbit reticulocyte system. A control of unmodified luciferase (natural luciferase) was used for both transcription experiments, a control of untreated and mock transfected (Lipofectamine 2000 alone) were also analyzed for the HeLa transfection and a control of no RNA was analyzed for the rabbit reticulysates.
For the HeLa transfection experiments, the day before transfection, 20,000 HeLa cells (ATCC no. CCL-2; Manassas, Va.) were harvested by treatment with Trypsin-EDTA solution (LifeTechnologies, Grand Island, N.Y.) and seeded in a total volume of 100 ul EMEM medium (supplemented with 10% FCS and 1× Glutamax) per well in a 96-well cell culture plate (Corning, Manassas, Va.). The cells were grown at […] in 5% CO2 atmosphere overnight. […] Lipofectamine 2000 (LifeTechnologies, Grand Island, N.Y.) was used as transfection reagent and 0.2 ul were diluted in 10 ul final volume of OPTI-MEM. After […] of incubation at room temperature, both solutions were combined and incubated an additional 15 minute at room temperature. Then the 20 ul combined solution was added to the 100 ul cell culture medium containing the HeLa cells and incubated at room temperature. After 18 to 22 hours of incubation cells expressing luciferase were lysed with 100 ul of Passive Lysis Buffer (Promega, Madison, Wis.) according to manufacturer instructions. Aliquots of the lysates were transferred to white opaque polystyrene 96-well plates (Corning, Manassas, Va.) and combined with 100 ul complete luciferase assay solution (Promega, Madison, Wis.). The lysate volumes were adjusted or diluted until no more than 2 mio relative light units (RLU) per well were detected for the strongest signal producing samples and the RLUs for each chemistry tested are shown in Table 42. The plate reader was a BioTek Synergy H1 (BioTek, Winooski, Vt.). The background signal of the plates without reagent was about 200 relative light units per well.
To evaluate using of 2′fluoro-modified mRNA in combination with other modification a series of mRNA were transcribed using either wild-type T7 polymerase (non-fluoro-containing compounds) or using mutant T7 polymerases (fluyoro-containing compounds) as described in Example 86. All modified mRNA were tested by in vitro transfection in HeLa cells.
After 18 to 22 hours of incubation cells expressing luciferase were lysed with 100 ul of Passive Lysis Buffer (Promega, Madison, Wis.) according to manufacturer instructions. Aliquots of the lysates were transferred to white opaque polystyrene 96-well plates (Corning, Manassas, Va.) and combined with 100 ul complete luciferase assay solution (Promega, Madison, Wis.). The lysate volumes were adjusted or diluted until no more than 2 mio relative light units (RLU) per well were detected for the strongest signal producing samples and the RLUs for each chemistry tested are shown in Table 44. The plate reader was a BioTek Synergy H1 (BioTek, Winooski, Vt.). The background signal of the plates without reagent was about 200 relative light units per well.

[5] = Table 47 naturally occurring, *** = production seen in cell free translations
[6] = Table 48 non-naturally occurring

wild-type T7 polymerase, sequence (P00573 whole entry): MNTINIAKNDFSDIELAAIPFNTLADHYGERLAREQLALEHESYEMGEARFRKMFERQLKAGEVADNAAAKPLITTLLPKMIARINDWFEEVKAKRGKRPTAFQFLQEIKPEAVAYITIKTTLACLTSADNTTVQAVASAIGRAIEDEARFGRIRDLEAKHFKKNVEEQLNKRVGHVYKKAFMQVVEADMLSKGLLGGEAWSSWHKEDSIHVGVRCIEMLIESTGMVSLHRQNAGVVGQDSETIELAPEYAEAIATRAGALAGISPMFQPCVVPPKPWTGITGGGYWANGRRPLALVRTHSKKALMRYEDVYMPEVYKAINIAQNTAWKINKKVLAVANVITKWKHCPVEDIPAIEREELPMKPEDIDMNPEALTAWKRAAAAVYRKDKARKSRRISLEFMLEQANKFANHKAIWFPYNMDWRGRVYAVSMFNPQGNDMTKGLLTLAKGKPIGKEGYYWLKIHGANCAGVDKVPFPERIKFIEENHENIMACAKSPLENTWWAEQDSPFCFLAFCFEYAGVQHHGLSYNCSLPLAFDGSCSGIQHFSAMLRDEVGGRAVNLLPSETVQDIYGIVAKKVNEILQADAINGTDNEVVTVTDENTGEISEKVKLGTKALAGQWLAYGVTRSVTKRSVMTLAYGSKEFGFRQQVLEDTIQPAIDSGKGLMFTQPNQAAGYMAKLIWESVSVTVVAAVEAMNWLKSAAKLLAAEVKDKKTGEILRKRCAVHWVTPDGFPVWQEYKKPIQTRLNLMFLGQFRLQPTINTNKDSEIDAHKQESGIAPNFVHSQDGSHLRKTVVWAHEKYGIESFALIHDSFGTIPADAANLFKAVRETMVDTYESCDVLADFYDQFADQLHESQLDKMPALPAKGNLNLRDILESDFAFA

COC(=O)C=Cc1cn([C@@H]2O[C@H](CO)[C@@H](O)[C@H]2O)c(=O)[nH]c1=O [5-(2carbomethoxyvinyl) uridine]
G-CSF protein (pg/ml) HeLa cells (HeLa cells [1]): 1,364 pg/ml
G-CSF protein (pg/ml) Rabbit reticulysates cells (rabbit reticulysates): 0 pg/mL

Cc1cn([C@@H]2O[C@H](CO)[C@@H](O)[C@H]2O)c(=O)nc1N [Compound 5-methyl-cytidine, 5-methyl-cytidine]
G-CSF protein (pg/ml) HeLa cells (HeLa cells [1]): 646,591 pg/ml
G-CSF protein (pg/ml) Rabbit reticulysates cells (rabbit reticulysates): 79,375 pg/ml

O=c1[nH]c(=O)n([C@@H]2O[C@H](CO)[C@@H](O)[C@H]2O)cc1Br [5-Bromo-uridine]
G-CSF protein (pg/ml) HeLa cells (HeLa cells [1]): 186,591 pg/ml
G-CSF protein (pg/ml) Rabbit reticulysates cells (rabbit reticulysates): 72,000 pg/ml

Cn1cc([C@@H]2O[C@H](CO)[C@@H](O)[C@H]2O)c(=O)[nH]c1=O [1-methylpseudouridine (m^1Y)]
Protein (G-CSF; PBMC) ([2]; Table 47 naturally occurring): ++++ (“++++” means greater than 6,000 pg/ml G-CSF)
IVT (G-CSF) (wild-type T7 polymerase): Pass
IVT (Luc) (wild-type T7 polymerase): Pass
Cytokines (G-CSF; PBMC) ([3]; Table 47 naturally occurring): − (“−” means less than 100 pg/ml)
Protein (Luc; HeLa) (HeLa cells [4]; [5]): +

Nc1cnn([C@@H]2O[C@H](CO)[C@@H](O)[C@H]2O)c(=O)n1 [Compound 6-Aza-cytidine, 6-Aza-cytidine]
IVT (G-CSF), first result (wild-type T7 polymerase): Fail
IVT (Luc), first result (wild-type T7 polymerase): Fail

CNc1ncnc2c1ncn2[C@@H]1O[C@H](CO)[C@@H](O)[C@H]1O [Compound N6-methyl-adenosine, N6-methyl-adenosine]
G-CSF protein (pg/ml) HeLa cells (HeLa cells [1]): 1,591 pg/ml
G-CSF protein (pg/ml) Rabbit reticulysates cells (rabbit reticulysates): 0 pg/mL

Nc1nc(=O)n([C@@H]2O[C@H](CO)[C@@H](O)[C@H]2O)cc1C=O [Compound 5-formyl-cytidine, 5-formyl-cytidine]
G-CSF protein (pg/ml) HeLa cells (HeLa cells [1]): 0 pg/mL
G-CSF protein (pg/ml) Rabbit reticulysates cells (rabbit reticulysates): 24,000 pg/ml

O=c1[nH]cc([C@@H]2O[C@H](CO)[C@@H](O)[C@H]2O)c(=O)[nH]1 [pseudouridine (Y)]
Protein (G-CSF; HeLa) (HeLa cells [1]; [5]): +
Protein (G-CSF; PBMC) ([2]; Table 47 naturally occurring): ++ (“++” means greater than 1,500 pg/ml G-CSF)
IVT (G-CSF) (wild-type T7 polymerase): Pass
IVT (Luc) (wild-type T7 polymerase): Pass
Cytokines (G-CSF; PBMC) ([3]; Table 47 naturally occurring): + (“+” means greater than 100 pg/ml IFN-alpha)
Protein (Luc; HeLa) (HeLa cells [4]; [5]): +

O=c1ccn([C@@H]2O[C@H](CO)[C@@H](O)[C@H]2O)c(=S)[nH]1 [2-thiouridine]
G-CSF protein (pg/ml) HeLa cells (HeLa cells [1]): 417,273 pg/ml
G-CSF Protein Expression ([2]; PBMC Donor 1, 0.4 uL Lipofectamine 2000): 932 pg/mL
G-CSF Protein Expression ([2]; PBMC Donor 2): 1,000 pg/ml
G-CSF Protein Expression ([2]; PBMC Donor 3): 600 pg/mL
G-CSF protein (pg/ml) Rabbit reticulysates cells (rabbit reticulysates): 18,375 pg/ml

COC(=O)C=Cc1cn([C@@H]2O[C@H](CO)[C@@H](O)[C@H]2O)c(=O)[nH]c1=O [5-(2-carbomethoxyvinyl) Uridine]
Protein (G-CSF; HeLa) (HeLa cells [1]; [6]): −
Protein (G-CSF; PBMC) [2, 6]: +/− (“+/−” means 150-300 pg/ml G-CSF)
IVT (G-CSF), first result (wild-type T7 polymerase): Pass
IVT (Luc), first result (wild-type T7 polymerase): Pass
Cytokines (G-CSF; PBMC) [3, 6]: − (“−” means less than 100 pg/ml)
Protein (Luc; HeLa) (HeLa cells [4]; Table 48 non-naturally occurring, ** mutant T7 polymerase): −

Cn1cnc2c(ncn2[C@@H]2O[C@H](CO)[C@@H](O)[C@H]2O)c1=N [Compound N1-methyl-adenosine, N1-methyl-adenosine]
G-CSF protein (pg/ml) HeLa cells (HeLa cells [1]): 4,773 pg/ml
G-CSF protein (pg/ml) Rabbit reticulysates cells (rabbit reticulysates): 0 pg/mL
